These results are taken from patent US20070218555A1, “Anti-Microbial Activity Of Biologically Stabilized Silver Nano Particles” (priority 2004, published 2007).

The structures appear in SMILES notation.

Series [1] deals with human dermal fibroblast cells. As to conditions: cited from earlier work.
The test system of series [2] is Pseudomonas aeruginosa MDR strain. Nature of the series: Interaction of drugs with silver nano particles, checkerboard macrodilution (FICI). The class given is cell-based. As to conditions: drug in combination with biologically stabilized silver nano particles. How it is done:
Interaction of drugs with biologically stabilized silver nano particles. A two-dimensional checkerboard macrodilution technique was used to characterize interactions between biologically stabilized silver nano particles and drug (viz. Gentamicin, Penicillin, Cefotaxime, Ceptazidime, Kanamycin, Vancomycin). six experiments were performed for Pseudomonas aeruginosa MDR strain described above. Inoculum was prepared similarly to those for susceptibility testing. Individual drug with biologically stabilized silver nano particles were diluted in serial twofold dilutions, and concentrations ranged from four fold below to four folds above the MIC. The highest dilution of the drug combination with biologically stabilized silver nano particles that inhibits the visible growth of the test organism was regarded as the fractional inhibitory concentration (FIC). The fractional inhibitory concentration (FIC) index (FICI) was used to define the interaction between the two drugs. The FICI is the sum of the FICs of each of the drugs. The FIC was calculated as follows: MIC of the drug tested in combination/MIC of the drug tested alone. The interaction was defined as synergistic if the FICI was […], as additive if the FICI was >0.5 to 1.0, as indifferent if the FICI was >1.0 to 2.0, and as antagonistic if the FICI was >2.0.

`O=[N+]([O-])[O-].[Ag+]` [silver nitrate]: the “low concentration of silver ions showing inhibitory effect” value in series [1] is 8.2 μM/l.
For the compound `CC(C)(O/N=C(\C(=O)N[C@@H]1C(=O)N2C(C(=O)[O-])=C(C[n+]3ccccc3)CS[C@H]12)c1csc(N)n1)C(=O)O` [ceptazidime], the “interaction by mean FICI” value in series [2] is recorded as “partially synergistic”.
